Here are results for 16 compounds from ChEMBL document CHEMBL3864160, “Discovery of fluorobenzimidazole HCV NS5A inhibitors” (Bioorg Med Chem Lett, 2016).

Holding throughout (details): Huh-7, 96 h
The nature of experiment [1]: Inhibition of Hepatitis C virus genotype 2b replicon NS5A transfected in human HuH7 cells assessed as decrease in replication of viral replicon after 4 days by luciferase reporter gene assay. The class given is cell-based, Hepatitis C virus subtype 2b. In general terms: A replicon is a self-replicating genome or part of one, used to study replication in cells.
Experiment [2] in a line: Inhibition of Hepatitis C virus genotype 4a replicon NS5A transfected in human HuH7 cells assessed as decrease in replication of viral replicon after 4 days by luciferase reporter gene assay. The class given is cell-based, Hepatitis C virus subtype 4a.
Experiment [3] in a line: Inhibition of Hepatitis C virus genotype 6a replicon NS5A transfected in human HuH7 cells assessed as decrease in replication of viral replicon after 4 days by luciferase reporter gene assay. The class given is cell-based, Hepatitis C virus subtype 6a.
The nature of experiment [4]: Inhibition of Hepatitis C virus genotype 1a H77 replicon NS5A transfected in human HuH7 cells assessed as decrease in replication of viral replicon after 4 days by luciferase reporter gene assay. The class given is cell-based, Hepatitis C virus (isolate H77).
Experiment [5] in a line: Inhibition of Hepatitis C virus genotype 2a replicon NS5A transfected in human HuH7 cells assessed as decrease in replication of viral replicon after 4 days by luciferase reporter gene assay. The class given is cell-based, Hepatitis C virus subtype 2a.
Experiment [6] is described as follows: Inhibition of Hepatitis C virus genotype 1b Con1 replicon NS5A transfected in human HuH7 cells assessed as decrease in replication of viral replicon after 4 days by luciferase reporter gene assay. The class given is cell-based, Hepatitis C virus (isolate Con1).
Experiment [7] can be described thus: Inhibition of Hepatitis C virus genotype 3a replicon NS5A transfected in human HuH7 cells assessed as decrease in replication of viral replicon after 4 days by luciferase reporter gene assay. The class given is cell-based, Hepatitis C virus subtype 3a.

For the compound `COC(=O)N[C@H](C(=O)N1CCC[C@H]1c1nc2cc(-c3ccc(-c4cc5nc([C@@H]6CCCN6C(=O)[C@@H](NC(=O)OC)C(C)C)[nH]c5cc4F)cc3)c(F)cc2[nH]1)C(C)C`, the EC50 was below 0.03 nM in experiment [1]; 0.008 nM in experiment [2]; 0.274 nM in experiment [3]; 0.076 nM in experiment [4]; 31 nM in experiment [5]; below 0.03 nM in experiment [6]. The EC50 in experiment [7] is 0.444 nM.
On to `COC(=O)N[C@H](C(=O)N1CCC[C@H]1c1cc2nc(-c3ccc(-c4ccc5[nH]c([C@@H]6CCCN6C(=O)[C@@H](NC(=O)OC)C(C)C)cc5n4)cc3)ccc2[nH]1)C(C)C`, for which the EC50 in experiment [1] was above 100 nM; in experiment [2] it was above 100 nM; in experiment [4], above 100 nM; in experiment [5], above 100 nM; in experiment [6], 7.44 nM; in experiment [7], above 100 nM.
As for `COC(=O)N[C@H](C(=O)N1CCC[C@H]1c1nc2nc(-c3ccc(-c4ccc5[nH]c([C@@H]6CCCN6C(=O)[C@@H](NC(=O)OC)C(C)C)nc5n4)cc3)ccc2[nH]1)C(C)C`, the EC50 in experiment [1] is 1.43 nM; in experiment [2] it was 1.84 nM; in experiment [4], 1.12 nM; in experiment [5], above 100 nM; in experiment [6], 0.283 nM; in experiment [7] it was 6.69 nM.
Consider `COC(=O)N[C@H](C(=O)N1CCC[C@H]1c1nc2cc(-c3ccc(-c4cc(C(F)(F)F)c5[nH]c([C@@H]6CCCN6C(=O)[C@@H](NC(=O)OC)C(C)C)nc5c4)cc3)cc(C(F)(F)F)c2[nH]1)C(C)C`, for which the EC50 in experiment [1] was above 10 nM; in experiment [2] it was 1.9 nM; in experiment [3], above 10 nM; in experiment [4] it was 23 nM; in experiment [5], above 100 nM; in experiment [6] it was 0.107 nM. Besides, the EC50 in experiment [7] was above 100 nM.
As for `COC(=O)N[C@H](C(=O)N1CCC[C@H]1c1nc2cc(-c3ccc(-c4cc(F)c5[nH]c([C@@H]6CCCN6C(=O)[C@@H](NC(=O)OC)C(C)C)nc5c4)cc3)cc(F)c2[nH]1)C(C)C`, the EC50 in experiment [1] was 0.516 nM; in experiment [2], 0.04 nM; in experiment [4], 0.579 nM; in experiment [5], 13.8 nM; in experiment [6], below 0.03 nM; in experiment [7], 6.49 nM.
Turning to `COC(=O)N[C@H](C(=O)N1CCC[C@H]1c1nc2ccc(-c3ccc(-c4ccc5nc([C@@H]6CCCN6C(=O)[C@@H](NC(=O)OC)C(C)C)[nH]c5c4)cc3)cc2[nH]1)C(C)C`, the EC50 was determined as 0.06 nM in experiment [1]; 0.062 nM in experiment [2]; 0.272 nM in experiment [4]; 75.5 nM in experiment [5]; 0.022 nM in experiment [6]; 1.12 nM in experiment [7].
For the compound `COC(=O)N[C@H](C(=O)N1CCC[C@H]1c1nc2cc(-c3ccc(-c4cc5nc([C@@H]6CCCN6C(=O)[C@@H](NC(=O)OC)C(C)C)[nH]c5cc4C)cc3)c(C)cc2[nH]1)C(C)C`, the concentration giving a half-maximal response (EC50) in experiment [1] is 0.148 nM; in experiment [2] it was below 0.03 nM; in experiment [3] it was 3.24 nM; in experiment [4], 1.47 nM; in experiment [5] it was 9.18 nM; in experiment [6], 0.008 nM. For the same compound, the EC50 in experiment [7] is 4.45 nM.
Consider `COC(=O)N[C@H](C(=O)N1CCC[C@H]1c1nc2cc(-c3ccc(-c4cnc5[nH]c([C@@H]6CCCN6C(=O)[C@@H](NC(=O)OC)C(C)C)nc5c4)cc3)cnc2[nH]1)C(C)C`, for which the concentration giving a half-maximal response (EC50) in experiment [1] was 6.5 nM; in experiment [2] it was 1.1 nM; in experiment [4] it was 5.58 nM; in experiment [5], above 100 nM; in experiment [6], 1.54 nM; in experiment [7], above 100 nM.
As to `COC(=O)N[C@H](C(=O)N1CCC[C@H]1c1nc2c(F)c(-c3ccc(-c4ccc5[nH]c([C@@H]6CCCN6C(=O)[C@@H](NC(=O)OC)C(C)C)nc5c4F)cc3)ccc2[nH]1)C(C)C`, the EC50 turned out to be 0.222 nM in experiment [1]; 0.33 nM in experiment [2]; 4.75 nM in experiment [3]; 0.129 nM in experiment [4]; 40.2 nM in experiment [5]; 0.013 nM in experiment [6]. In addition, the EC50 in experiment [7] was 0.645 nM.
As for `COC(=O)N[C@H](C(=O)N1CCC[C@H]1c1nc2cc(-c3ccc(-c4cc5nc([C@@H]6CCCN6C(=O)[C@@H](NC(=O)OC)C(C)C)[nH]c5cc4OC)cc3)c(OC)cc2[nH]1)C(C)C`, the half-maximal effective concentration (EC50) in experiment [1] was 88.6 nM; in experiment [2] it was 0.548 nM; in experiment [3], above 100 nM; in experiment [4], 25.5 nM; in experiment [5], above 100 nM; in experiment [6], 0.093 nM. Further, the EC50 in experiment [7] is above 100 nM.
Take `COC(=O)N[C@H](C(=O)N1CCC[C@H]1c1nc2c(C)c(-c3ccc(-c4ccc5[nH]c([C@@H]6CCCN6C(=O)[C@@H](NC(=O)OC)C(C)C)nc5c4C)cc3)ccc2[nH]1)C(C)C`: the EC50 was 0.32 nM in experiment [1]; 0.014 nM in experiment [2]; 7.05 nM in experiment [3]; 0.038 nM in experiment [4]; 28 nM in experiment [5]; 0.014 nM in experiment [6]. Besides, the EC50 in experiment [7] is 0.104 nM.
Take `COC(=O)N[C@H](C(=O)N1CCC[C@H]1c1nc2cc(-c3ccc(-c4cc(OC)c5[nH]c([C@@H]6CCCN6C(=O)[C@@H](NC(=O)OC)C(C)C)nc5c4)cc3)cc(OC)c2[nH]1)C(C)C`: the EC50 in experiment [1] is 56.8 nM; in experiment [2], 0.162 nM; in experiment [3] it was above 100 nM; in experiment [4], 0.628 nM; in experiment [5] it was above 100 nM; in experiment [6] it was 0.095 nM. Further, in experiment [7], the EC50 was 92.4 nM.
For `COC(=O)N[C@H](C(=O)N1CCC[C@H]1c1nc2cc(-c3ccc(-c4cc5nc([C@@H]6CCCN6C(=O)[C@@H](NC(=O)OC)C(C)C)[nH]c5cc4C(F)(F)F)cc3)c(C(F)(F)F)cc2[nH]1)C(C)C`, the EC50 worked out at 4.49 nM in experiment [1]; 0.049 nM in experiment [2]; 21.5 nM in experiment [3]; 12 nM in experiment [4]; 49.6 nM in experiment [5]; 0.006 nM in experiment [6]. In addition, the EC50 in experiment [7] was found to be 43.4 nM.
Turning to `COC(=O)N[C@H](C(=O)N1CCC[C@H]1c1nc2c(F)c(-c3ccc(-c4c(F)cc5[nH]c([C@@H]6CCCN6C(=O)[C@@H](NC(=O)OC)C(C)C)nc5c4F)cc3)c(F)cc2[nH]1)C(C)C`, the EC50 in experiment [1] came to 0.218 nM; in experiment [2], 0.077 nM; in experiment [3] it was 17.3 nM; in experiment [4] it was 0.507 nM; in experiment [5], 43.1 nM; in experiment [6] it was 0.016 nM. In experiment [7], the EC50 was found to be 1.43 nM.
Consider `COC(=O)N[C@H](C(=O)N1CCC[C@H]1c1nc2cc(-c3ccc(-c4cc(C)c5[nH]c([C@@H]6CCCN6C(=O)[C@@H](NC(=O)OC)C(C)C)nc5c4)cc3)cc(C)c2[nH]1)C(C)C`, for which the EC50 in experiment [1] is 3.93 nM; in experiment [2], 0.404 nM; in experiment [3], 22.9 nM; in experiment [4], 0.98 nM; in experiment [5] it was above 100 nM; in experiment [6] it was 0.031 nM. Besides, the EC50 in experiment [7] is 17.5 nM.
`COCc1c(-c2ccc(-c3ccc4[nH]c([C@@H]5CCCN5C(=O)[C@@H](NC(=O)OC)C(C)C)nc4c3COC)cc2)ccc2[nH]c([C@@H]3CCCN3C(=O)[C@@H](NC(=O)OC)C(C)C)nc12`: the EC50 in experiment [1] is 77.5 nM; in experiment [2], 1.19 nM; in experiment [3], above 100 nM; in experiment [4] it was 1.18 nM; in experiment [5], above 100 nM; in experiment [6] it was 0.193 nM. For the same compound, the EC50 in experiment [7] stood at 15.5 nM.

In general, EC50 refers to the concentration at which the effect is half-maximal.
